Data published in ChEMBL document CHEMBL5465560, “Selectivity Literature for EUbOPEN Chemogenomic Library” (2024).
Each block holds one compound with its values, some of them ahead of it.

Legend:
[1] = target: Serine/threonine-protein kinase 32B (Homo sapiens) (UniProt Q9NY57); conditions: at 10 µM
[2] = target: T1, Dual specificity mitogen-activated protein kinase kinase 6 (Homo sapiens) (UniProt P52564); experiment: Selectivity interaction (ActivX KiNativ screen (kinase selectivity in THP-1 cell lysates)) EUB0000639a MAP2K6; type: subcellular; conditions: lysate, at 0.2 µM
T1 sequence (whole entry): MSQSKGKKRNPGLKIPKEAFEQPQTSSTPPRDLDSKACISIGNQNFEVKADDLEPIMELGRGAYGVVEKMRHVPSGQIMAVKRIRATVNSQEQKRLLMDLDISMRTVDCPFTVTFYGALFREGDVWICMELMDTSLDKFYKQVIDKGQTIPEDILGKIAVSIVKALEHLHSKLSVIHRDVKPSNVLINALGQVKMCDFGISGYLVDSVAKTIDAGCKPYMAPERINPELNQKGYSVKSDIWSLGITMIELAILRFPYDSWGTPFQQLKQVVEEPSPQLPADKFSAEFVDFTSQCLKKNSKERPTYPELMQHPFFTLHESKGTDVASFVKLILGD

[3] = target: Ribosomal protein S6 kinase alpha-1 (Homo sapiens, UniProt Q15418); experiment: Selectivity interaction (ActivX KiNativ screen (kinase selectivity in THP-1 cell lysates)) EUB0000639a RPS6KA1; type: subcellular; conditions: lysate, at 5 µM
[4] = target: T2, STE20-related kinase adapter protein alpha (Homo sapiens) (UniProt Q7RTN6); experiment: Selectivity interaction (ActivX KiNativ screen (kinase selectivity in THP-1 cell lysates)) EUB0000639a STRADA; type: subcellular; conditions: lysate, at 5 µM
T2 sequence (whole entry): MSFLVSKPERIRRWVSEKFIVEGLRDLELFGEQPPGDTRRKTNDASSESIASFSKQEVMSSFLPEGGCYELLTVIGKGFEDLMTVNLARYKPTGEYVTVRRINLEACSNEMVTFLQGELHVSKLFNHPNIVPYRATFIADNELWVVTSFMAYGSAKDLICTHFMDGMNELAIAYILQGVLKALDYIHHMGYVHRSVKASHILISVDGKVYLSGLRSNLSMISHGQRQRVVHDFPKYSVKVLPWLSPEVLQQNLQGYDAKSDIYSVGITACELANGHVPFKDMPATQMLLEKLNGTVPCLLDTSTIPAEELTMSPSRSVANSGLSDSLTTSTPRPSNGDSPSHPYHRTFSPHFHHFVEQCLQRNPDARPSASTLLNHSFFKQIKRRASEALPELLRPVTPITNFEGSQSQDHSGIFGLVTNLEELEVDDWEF

[5] = target: Histone-lysine N-methyltransferase SUV39H2 (Homo sapiens) (UniProt Q9H5I1); experiment: Selectivity interaction (Methyltransferase screen (radiometric assays, panel of 8 PRMTs, 21 protein lysine methyltransferases, 3 DNA methyltransferases, and one RNA methyltransferase)) EUB0000271b SUV39H2
[6] = target: Calcium/calmodulin-dependent protein kinase type II subunit delta (Homo sapiens) (UniProt Q13557); experiment: Selectivity interaction (KinomeScan (DiscoverX)) EUB0000595a CAMK2D; conditions: at 10 µM
[7] = target: Casein kinase I isoform gamma-1 (Homo sapiens) (UniProt Q9HCP0); experiment: Selectivity interaction (Ambit KINOMEscan and KiNATiv profiling in Jurkat cells) EUB0000090b CSNK1G1; type: cell-based; conditions: at 1 µM
[8] = target: Rho-associated protein kinase 2 (Homo sapiens, UniProt O75116); experiment: Selectivity interaction (KinomeScan (DiscoverX)) EUB0000655a ROCK2; conditions: at 10 µM
[9] = target: Mitogen-activated protein kinase 14 (Homo sapiens, UniProt Q16539); experiment: Selectivity interaction (KinomeScan (DiscoverX)) EUB0001079a MAPK14; conditions: at 1 µM
[10] = target: Serine/threonine-protein kinase N1 (Homo sapiens, UniProt Q16512); experiment: Selectivity interaction (Kinase panel (KiNativ target engagement assay in Jurkat cells)) EUB0001635a PKN1; type: cell-based; conditions: Selectivity number of off-targets 0.0, Selectivity number of targets 233.0, Source Knowledge https://www.sciencedirect.com/science/article/pii/S2451945619300674?via%3Dihub, at 1 µM
[11] = target: T3, Cyclin-G-associated kinase (Homo sapiens) (UniProt O14976); conditions: at 10 µM
T3 sequence (whole entry): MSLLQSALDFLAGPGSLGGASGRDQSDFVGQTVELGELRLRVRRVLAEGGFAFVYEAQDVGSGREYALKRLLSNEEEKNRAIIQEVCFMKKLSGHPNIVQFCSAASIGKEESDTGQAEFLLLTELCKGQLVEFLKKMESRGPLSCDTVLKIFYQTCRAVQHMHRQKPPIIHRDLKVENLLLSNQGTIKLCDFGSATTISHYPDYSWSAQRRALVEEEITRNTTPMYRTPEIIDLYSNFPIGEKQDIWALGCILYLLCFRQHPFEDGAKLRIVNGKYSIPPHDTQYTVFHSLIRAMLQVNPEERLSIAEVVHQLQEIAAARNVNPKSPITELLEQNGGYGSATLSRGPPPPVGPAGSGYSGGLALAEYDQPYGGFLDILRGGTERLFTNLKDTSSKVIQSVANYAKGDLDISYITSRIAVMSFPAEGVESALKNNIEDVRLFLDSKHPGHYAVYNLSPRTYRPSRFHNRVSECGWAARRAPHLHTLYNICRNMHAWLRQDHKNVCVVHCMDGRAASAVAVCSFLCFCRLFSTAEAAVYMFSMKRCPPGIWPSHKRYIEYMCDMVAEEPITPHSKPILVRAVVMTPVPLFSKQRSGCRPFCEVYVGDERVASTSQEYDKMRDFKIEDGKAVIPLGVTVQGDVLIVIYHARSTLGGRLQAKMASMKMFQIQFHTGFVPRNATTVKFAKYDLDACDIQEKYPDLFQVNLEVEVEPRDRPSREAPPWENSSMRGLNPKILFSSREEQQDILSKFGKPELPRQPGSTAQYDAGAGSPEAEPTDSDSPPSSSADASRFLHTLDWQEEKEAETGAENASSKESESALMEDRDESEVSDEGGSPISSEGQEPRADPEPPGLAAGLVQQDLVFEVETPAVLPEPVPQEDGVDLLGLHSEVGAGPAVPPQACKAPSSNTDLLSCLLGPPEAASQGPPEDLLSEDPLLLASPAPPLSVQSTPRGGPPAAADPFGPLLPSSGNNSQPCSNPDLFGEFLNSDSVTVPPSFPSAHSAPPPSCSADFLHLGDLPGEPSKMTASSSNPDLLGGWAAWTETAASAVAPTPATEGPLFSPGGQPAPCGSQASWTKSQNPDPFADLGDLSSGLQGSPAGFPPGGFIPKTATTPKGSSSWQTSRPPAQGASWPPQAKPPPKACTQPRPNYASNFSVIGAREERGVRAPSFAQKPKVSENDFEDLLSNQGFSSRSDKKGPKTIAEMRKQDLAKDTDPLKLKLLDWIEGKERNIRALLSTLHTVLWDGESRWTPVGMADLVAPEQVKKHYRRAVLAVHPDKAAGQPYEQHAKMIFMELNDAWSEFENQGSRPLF

Chain of Histone-lysine N-methyltransferase SUV39H2 (Homo sapiens) (Q9H5I1 whole entry): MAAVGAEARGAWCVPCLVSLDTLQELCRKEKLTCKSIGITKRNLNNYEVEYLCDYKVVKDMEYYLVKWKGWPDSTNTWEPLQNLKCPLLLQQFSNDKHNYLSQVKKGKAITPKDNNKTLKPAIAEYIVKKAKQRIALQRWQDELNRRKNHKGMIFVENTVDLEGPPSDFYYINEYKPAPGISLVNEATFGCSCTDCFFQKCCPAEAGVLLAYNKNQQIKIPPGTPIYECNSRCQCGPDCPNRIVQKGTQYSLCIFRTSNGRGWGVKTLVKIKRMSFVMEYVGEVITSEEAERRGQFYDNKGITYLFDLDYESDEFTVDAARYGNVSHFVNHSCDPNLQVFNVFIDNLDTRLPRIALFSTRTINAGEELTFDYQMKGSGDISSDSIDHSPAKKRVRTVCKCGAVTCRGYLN
Chain of Calcium/calmodulin-dependent protein kinase type II subunit delta (Homo sapiens) (Q13557 whole entry, canonical isoform): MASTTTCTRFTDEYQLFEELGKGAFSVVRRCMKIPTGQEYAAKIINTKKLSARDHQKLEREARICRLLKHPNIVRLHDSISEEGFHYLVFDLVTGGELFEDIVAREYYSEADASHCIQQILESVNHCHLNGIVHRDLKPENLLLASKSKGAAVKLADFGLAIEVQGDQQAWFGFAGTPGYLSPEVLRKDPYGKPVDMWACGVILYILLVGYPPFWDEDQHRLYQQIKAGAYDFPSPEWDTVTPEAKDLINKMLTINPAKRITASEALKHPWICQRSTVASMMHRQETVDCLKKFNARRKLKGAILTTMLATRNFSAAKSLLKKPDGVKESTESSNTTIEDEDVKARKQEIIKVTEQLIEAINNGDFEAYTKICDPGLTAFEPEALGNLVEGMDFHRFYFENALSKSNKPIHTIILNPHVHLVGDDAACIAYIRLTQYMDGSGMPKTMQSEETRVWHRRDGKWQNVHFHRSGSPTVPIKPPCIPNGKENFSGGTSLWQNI
Chain of Rho-associated protein kinase 2 (O75116 whole entry, looked up): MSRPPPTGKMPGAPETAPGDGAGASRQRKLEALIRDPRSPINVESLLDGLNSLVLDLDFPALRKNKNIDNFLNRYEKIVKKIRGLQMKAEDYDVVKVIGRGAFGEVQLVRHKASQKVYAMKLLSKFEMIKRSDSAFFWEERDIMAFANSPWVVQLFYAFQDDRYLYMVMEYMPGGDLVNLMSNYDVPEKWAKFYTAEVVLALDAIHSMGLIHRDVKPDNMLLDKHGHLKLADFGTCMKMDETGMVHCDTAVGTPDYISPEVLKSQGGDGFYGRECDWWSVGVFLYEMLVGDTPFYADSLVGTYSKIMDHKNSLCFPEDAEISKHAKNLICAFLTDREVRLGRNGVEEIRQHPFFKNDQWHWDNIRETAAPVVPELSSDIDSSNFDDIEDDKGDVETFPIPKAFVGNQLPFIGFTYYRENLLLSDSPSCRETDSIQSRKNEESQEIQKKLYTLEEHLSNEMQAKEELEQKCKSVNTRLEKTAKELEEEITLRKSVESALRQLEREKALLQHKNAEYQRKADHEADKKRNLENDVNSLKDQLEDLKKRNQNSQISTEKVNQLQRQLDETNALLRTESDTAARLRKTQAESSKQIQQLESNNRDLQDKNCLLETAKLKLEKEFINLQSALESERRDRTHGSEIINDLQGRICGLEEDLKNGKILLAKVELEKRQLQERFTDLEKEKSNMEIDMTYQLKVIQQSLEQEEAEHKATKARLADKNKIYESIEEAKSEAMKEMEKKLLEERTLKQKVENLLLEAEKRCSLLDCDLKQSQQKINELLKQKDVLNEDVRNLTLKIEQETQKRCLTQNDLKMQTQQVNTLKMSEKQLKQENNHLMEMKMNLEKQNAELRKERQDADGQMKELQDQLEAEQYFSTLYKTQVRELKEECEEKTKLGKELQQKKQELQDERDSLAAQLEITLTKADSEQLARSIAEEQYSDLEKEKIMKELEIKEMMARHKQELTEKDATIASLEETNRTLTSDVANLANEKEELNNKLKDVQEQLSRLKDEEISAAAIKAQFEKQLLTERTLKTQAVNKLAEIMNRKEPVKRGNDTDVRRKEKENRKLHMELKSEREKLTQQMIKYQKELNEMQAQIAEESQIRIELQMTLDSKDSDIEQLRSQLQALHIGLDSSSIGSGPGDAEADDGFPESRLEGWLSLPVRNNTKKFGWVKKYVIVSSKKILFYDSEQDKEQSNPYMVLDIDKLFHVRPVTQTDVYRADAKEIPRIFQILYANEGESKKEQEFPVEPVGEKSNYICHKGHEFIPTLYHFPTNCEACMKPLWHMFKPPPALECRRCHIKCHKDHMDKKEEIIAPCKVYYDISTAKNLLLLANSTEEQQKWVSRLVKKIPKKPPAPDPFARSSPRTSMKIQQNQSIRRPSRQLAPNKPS
Chain of Serine/threonine-protein kinase 32B (Homo sapiens) (Q9NY57 whole entry): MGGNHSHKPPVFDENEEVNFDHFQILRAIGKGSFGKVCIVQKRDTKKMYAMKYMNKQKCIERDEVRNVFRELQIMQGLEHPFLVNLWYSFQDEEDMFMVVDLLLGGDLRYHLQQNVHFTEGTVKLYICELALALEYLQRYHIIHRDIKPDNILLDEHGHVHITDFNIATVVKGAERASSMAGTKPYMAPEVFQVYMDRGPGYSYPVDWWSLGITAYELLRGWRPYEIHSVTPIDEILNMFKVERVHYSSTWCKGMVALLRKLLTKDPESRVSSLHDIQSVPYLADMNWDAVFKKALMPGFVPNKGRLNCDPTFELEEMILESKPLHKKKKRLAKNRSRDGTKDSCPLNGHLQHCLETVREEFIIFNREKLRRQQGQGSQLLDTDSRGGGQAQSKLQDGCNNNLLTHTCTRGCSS
Chain of Mitogen-activated protein kinase 14 (Q16539 whole entry): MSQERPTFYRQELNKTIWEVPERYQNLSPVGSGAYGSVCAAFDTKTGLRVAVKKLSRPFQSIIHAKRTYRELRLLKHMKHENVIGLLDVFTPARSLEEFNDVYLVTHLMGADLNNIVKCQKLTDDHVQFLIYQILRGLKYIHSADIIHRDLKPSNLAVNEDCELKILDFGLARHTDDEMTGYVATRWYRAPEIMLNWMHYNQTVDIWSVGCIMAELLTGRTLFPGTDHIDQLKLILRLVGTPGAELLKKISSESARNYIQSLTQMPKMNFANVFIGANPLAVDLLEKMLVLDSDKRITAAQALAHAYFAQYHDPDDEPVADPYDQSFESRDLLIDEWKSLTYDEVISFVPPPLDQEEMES
Chain of Ribosomal protein S6 kinase alpha-1 (Q15418 whole entry): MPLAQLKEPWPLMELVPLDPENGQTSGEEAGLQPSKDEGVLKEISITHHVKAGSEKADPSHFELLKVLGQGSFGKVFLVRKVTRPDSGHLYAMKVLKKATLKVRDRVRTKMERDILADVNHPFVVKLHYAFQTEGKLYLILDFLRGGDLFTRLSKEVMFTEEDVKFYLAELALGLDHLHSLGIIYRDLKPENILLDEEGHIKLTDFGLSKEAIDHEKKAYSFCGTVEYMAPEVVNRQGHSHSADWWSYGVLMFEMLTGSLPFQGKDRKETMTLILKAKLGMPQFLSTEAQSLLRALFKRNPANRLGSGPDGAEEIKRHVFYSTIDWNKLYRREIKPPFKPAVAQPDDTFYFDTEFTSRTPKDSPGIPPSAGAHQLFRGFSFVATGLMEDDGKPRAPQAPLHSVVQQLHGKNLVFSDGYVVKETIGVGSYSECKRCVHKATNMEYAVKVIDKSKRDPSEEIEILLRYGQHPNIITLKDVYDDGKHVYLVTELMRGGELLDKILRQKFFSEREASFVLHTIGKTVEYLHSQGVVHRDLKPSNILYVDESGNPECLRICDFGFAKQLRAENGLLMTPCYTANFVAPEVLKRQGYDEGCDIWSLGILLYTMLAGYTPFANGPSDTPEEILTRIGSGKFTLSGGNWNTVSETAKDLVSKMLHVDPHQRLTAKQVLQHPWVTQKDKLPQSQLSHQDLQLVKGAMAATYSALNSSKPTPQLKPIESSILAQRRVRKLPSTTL
Chain of Casein kinase I isoform gamma-1 (Homo sapiens) (Q9HCP0 whole entry, looked up, canonical isoform): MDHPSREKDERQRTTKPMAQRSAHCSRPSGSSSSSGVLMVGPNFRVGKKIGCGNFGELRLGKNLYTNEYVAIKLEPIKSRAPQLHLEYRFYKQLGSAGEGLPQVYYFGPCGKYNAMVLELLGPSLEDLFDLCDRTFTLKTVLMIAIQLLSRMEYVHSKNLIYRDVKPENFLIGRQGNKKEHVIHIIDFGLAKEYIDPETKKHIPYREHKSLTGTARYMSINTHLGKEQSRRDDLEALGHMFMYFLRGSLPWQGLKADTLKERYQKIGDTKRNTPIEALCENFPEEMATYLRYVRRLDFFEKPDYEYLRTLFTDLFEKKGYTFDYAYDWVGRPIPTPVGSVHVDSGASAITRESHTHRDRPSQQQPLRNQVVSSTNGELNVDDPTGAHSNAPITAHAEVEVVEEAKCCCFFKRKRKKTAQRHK

- % of control [1]: 100%
Compound: CCN(CC)CCCCNc1ncc2cc(-c3cc(OC)cc(OC)c3)c(NC(=O)NC(C)(C)C)nc2n1

- % of inhibition [2]: 12.8%
- % of inhibition [3]: 11.7%
- % of inhibition [4]: -29.5%
Compound: CC[C@@H]1[C@H](F)C(=O)N[C@@H]1COc1nccc2cc(C(N)=O)c(OC)cc12 [ZIMLOVISERTIB]

Compound: Cc1cc(C)cc([C@@H]2c3cc(C)ccc3NC(=O)CN2C(=O)c2ccc(Br)s2)c1
- % of activity ([5]; at 1 µM): 99.3%
- % of activity ([5]; at 10 µM): 98.3%

Compound: COCC(=O)NC/C=C/c1ccc2ncnc(Nc3ccc(Oc4ccc(C)nc4)c(C)c3)c2c1 [CP-724714]
- % of control [6]: 100%

Compound: CN(C)C/C=C/C(=O)Nc1ccc(C(=O)N2CCCC(Nc3ncc(Cl)c(-c4c[nH]c5ccccc45)n3)C2)cc1 (configuration not stated)
- % of control [7]: 94%

Compound: CN(C)CCOc1ccc(-c2nc(-c3ccncc3)c(-c3ccc4c(c3)CC/C4=N\O)[nH]2)cc1
- % of control [8]: 47%

Compound: Nc1cnc(N2CCc3cc(S(=O)(=O)Nc4c(F)cc(Cl)cc4F)cc(N4CCCC4=O)c32)nc1 [TP-020n]
- % of control [9]: 100%

Compound: C=CC(=O)Nc1ccc(C(=O)Nc2[nH]nc3c2CN(C(=O)N[C@H](CN(C)C)c2ccccc2)C3(C)C)cc1
- % of engagement [10]: -7.3%

Compound: Cc1cc([C@@H](C)Nc2ccccc2C(=O)O)c2nc(N3CCOCC3)cc(=O)n2c1 [AZD-6482]
- % of control [11]: 75%
